Experiments:
Settings in all cases: skin application
[1] = tested on: IL-4, IL-5, IL-12, IFN-γ, TNF-α, and TARC; assay: Chemokine and cytokine mRNA expression in skin tissues (reverse transcription PCR); type: in vivo, BALB/c mice and NC/Nga mice
Description: After the ending of the treatment of the BALB/c and NC/Nga mice with test materials, the BALB/c and NC/Nga mice of the DNCB-induced atopic control group, the Tacrolimus skin application group, the Lactococcus chungangensis skin application group, and the Lactococcus chungangensis oral administration group were sacrificed. The skin tissues were extracted, and Trizol was added thereto, and the skin tissues were homogenized using a homogenizer until dissolved, and RNA was extracted from the homogenized tissues. Specifically, Trizol was added to the skin tissues extracted from BALB/c mice and NC/Nga mice of each of the control and test groups, and chloroform (CHCl3) was added thereto and mixed. Then, the mixture was allowed to stand for 10 minutes and centrifuged. The centrifuged supernatant was recovered, mixed with the same amount of 2-propanol, allowed to stand for 10 minutes, centrifuged again, washed with 80% EtOH, and dried, to thereby obtain RNA. cDNA was obtained by reverse transcription PCR using AMV reverse transcriptase, dNTP (Promega, Madison, Wis.), EX Taq DNA polymerase (Takara Shuzou, Kyoto, Japan), and the obtained cDNA was used to investigate the mRNA expression levels of atopic-related chemokines and cytokines. Specifically, PCR was performed using the primer pairs described in Table 5 below for chemokines and cytokines IL-4, IL-5, IL-12, IFN-γ, TNF-α, and TARC and control GAPDH, respectively. The PCR was performed for 30 cycles of 1 minute at 94° C., 30 seconds at 95° C., 30 seconds at 55-65° C., and 3 minutes at 70° C.

[2] = tested on: IgE; assay: Immunoglobulin IgE measurement in serum (ELISA), NC/Nga mice; type: in vivo
Description: After the ending of the treatment with test materials, BALB/c and NC/Nga mice of the five groups were sacrificed, and blood was collected from the heart. Serum was isolated from the blood to measure IgE. […] Absorbance was measured at 450 nm using a microplate reader to determine IgE protein level.

[3] = tested on: DNCB-induced atopic BALB/c mice; assay: Visual evaluation of DNCB-induced atopic BALB/c mice; type: in vivo; design: key to dryness/scarring / edema / erosion/excoriation / erythema/hemorrhage: 0=absence; 1=mild; 2=moderate; 3=severe; key to Total severity score / Mean severity score: sum of 4 signs each 0=absence to 3=severe
Excerpt: Mice were divided into a total of five groups, a non-treatment (normal) group, a DNCB group, a Tacrolimus skin application group, a Lactococcus chungangensis skin application group, and a Lactococcus chungangensis oral administration group. Then, 0.1 g of hair removal cream was applied on the back and neck of BALB/c and NC/Nga mice, respectively, and hairs were removed using soft tissue paper to avoid wounds. After the mice were left for 5 days to heal minor wounds, 1% DNCB 200 (acetone:olive oil=3:1) was applied to the back and ears three times a week for two weeks to induce atopy. After atopy induction, Lactococcus chungangensis was applied to diseased parts at 10^9 cell/mouse twice a week for four weeks, while Lactococcus chungangensis was administered to oral cavity at 10^9 cell/mouse twice a week for four weeks. For efficacy comparison, Tacrolimus in use as an atopy medicine was used. Tacrolimus was applied to atopy diseased parts at 100 mg/kg twice a week for four weeks. Visual evaluation was conducted to determine a treatment effect in each of a Tacrolimus skin application group, a Lactococcus chungangensis skin application group, and a Lactococcus chungangensis oral administration group. Visual evaluation was conducted by evaluating the skin condition in four stages (0=absence, 1=mild, 2=moderate, 3=severe) according to the severity of erythema/hemorrhage, dryness/scarring, edema, and erosion/excoriation as evaluation indexes. A severity score of about 12 point or more was determined that the atopy symptoms reach the highest peak. The results are shown in Tables 1 to 5 for BALB/c mice, and Tables 6 to 10 for NC/Nga mice.

C=CC[C@@H]1/C=C(\C)C[C@H](C)C[C@H](OC)[C@H]2O[C@@](O)(C(=O)C(=O)N3CCCC[C@H]3C(=O)O[C@H](/C(C)=C/[C@@H]3CC[C@@H](O)[C@H](OC)C3)[C@H](C)[C@@H](O)CC1=O)[C@H](C)C[C@@H]2OC [Tacrolimus]
mRNA expression level of IFN-γ [1]: reduced
mRNA expression level of IL-4 [1]: reduced
mRNA expression level of IL-5 [1]: reduced
mRNA expression level of IL-12 [1]: reduced
mRNA expression level of TARC [1]: reduced
mRNA expression level of TNF-α [1]: reduced
inhibition of IgE production [2]: 62%
skin condition observed by the naked eye [3]: remarkably improved
Mean severity score ([3]; 1 Week): 5
Total severity score ([3]; 1 Week, evaluation 1): 4
dryness/scarring ([3]; 1 Week, evaluation 1): 1
edema ([3]; 1 Week, evaluation 1): 0
erosion/excoriation ([3]; 1 Week, evaluation 1): 1
erythema/hemorrhage ([3]; 1 Week, evaluation 1): 2
Total severity score ([3]; 1 Week, evaluation 2): 6
dryness/scarring ([3]; 1 Week, evaluation 2): 1
edema ([3]; 1 Week, evaluation 2): 1
erosion/excoriation ([3]; 1 Week, evaluation 2): 2
erythema/hemorrhage ([3]; 1 Week, evaluation 2): 2
Mean severity score ([3]; 2 Weeks): 8
Total severity score ([3]; 2 Weeks, evaluation 3): 8
dryness/scarring ([3]; 2 Weeks, evaluation 3): 2
edema ([3]; 2 Weeks, evaluation 3): 2
erosion/excoriation ([3]; 2 Weeks, evaluation 3): 2
erythema/hemorrhage ([3]; 2 Weeks, evaluation 3): 2
Total severity score ([3]; 2 Weeks, evaluation 4): 8
dryness/scarring ([3]; 2 Weeks, evaluation 4): 2
edema ([3]; 2 Weeks, evaluation 4): 2
erosion/excoriation ([3]; 2 Weeks, evaluation 4): 2
erythema/hemorrhage ([3]; 2 Weeks, evaluation 4): 2
Mean severity score ([3]; 3 Weeks): 10.5
Total severity score ([3]; 3 Weeks, evaluation 5): 11
dryness/scarring ([3]; 3 Weeks, evaluation 5): 2
edema ([3]; 3 Weeks, evaluation 5): 3
erosion/excoriation ([3]; 3 Weeks, evaluation 5): 3
erythema/hemorrhage ([3]; 3 Weeks, evaluation 5): 3
Total severity score ([3]; 3 Weeks, evaluation 6): 10
dryness/scarring ([3]; 3 Weeks, evaluation 6): 2
edema ([3]; 3 Weeks, evaluation 6): 2
erosion/excoriation ([3]; 3 Weeks, evaluation 6): 3
erythema/hemorrhage ([3]; 3 Weeks, evaluation 6): 3
Mean severity score ([3]; 4 Weeks): 9.5
Total severity score ([3]; 4 Weeks, evaluation 7): 10
dryness/scarring ([3]; 4 Weeks, evaluation 7): 3
edema ([3]; 4 Weeks, evaluation 7): 2
erosion/excoriation ([3]; 4 Weeks, evaluation 7): 3
erythema/hemorrhage ([3]; 4 Weeks, evaluation 7): 3
Total severity score ([3]; 4 Weeks, evaluation 8): 9
dryness/scarring ([3]; 4 Weeks, evaluation 8): 1
edema ([3]; 4 Weeks, evaluation 8): 2
erosion/excoriation ([3]; 4 Weeks, evaluation 8): 3
erythema/hemorrhage ([3]; 4 Weeks, evaluation 8): 3
Mean severity score ([3]; 5 Weeks): 6
Total severity score ([3]; 5 Weeks, evaluation 9): 7
dryness/scarring ([3]; 5 Weeks, evaluation 9): 2
edema ([3]; 5 Weeks, evaluation 9): 2
erosion/excoriation ([3]; 5 Weeks, evaluation 9): 1
erythema/hemorrhage ([3]; 5 Weeks, evaluation 9): 2
Total severity score ([3]; 5 Weeks, evaluation 10): 5
dryness/scarring ([3]; 5 Weeks, evaluation 10): 2
edema ([3]; 5 Weeks, evaluation 10): 1
erosion/excoriation ([3]; 5 Weeks, evaluation 10): 1
erythema/hemorrhage ([3]; 5 Weeks, evaluation 10): 1
Mean severity score ([3]; 6 Weeks): 2.5
Total severity score ([3]; 6 Weeks, evaluation 11): 4
dryness/scarring ([3]; 6 Weeks, evaluation 11): 1
edema ([3]; 6 Weeks, evaluation 11): 1
erosion/excoriation ([3]; 6 Weeks, evaluation 11): 1
erythema/hemorrhage ([3]; 6 Weeks, evaluation 11): 1
Total severity score ([3]; 6 Weeks, evaluation 12): 1
dryness/scarring ([3]; 6 Weeks, evaluation 12): 1
edema ([3]; 6 Weeks, evaluation 12): 0
erosion/excoriation ([3]; 6 Weeks, evaluation 12): 0
erythema/hemorrhage ([3]; 6 Weeks, evaluation 12): 0

Source: patent US10413575B2, “Pharmaceutical composition for preventing or treating inflammatory diseases, containing Lactococcus chungangensis as active ingredient” (CHUNG-ANG UNIVERSITY INDUSTRY-ACADEMIC COOPERATION …, priority 2015, dated 2019)
